# Earlier results as cited in patent US20160186266A1, “MOLECULAR PROFILING FOR PERSONALIZED MEDICINE” (CARIS LIFE SCIENCES, INC., priority 2009, published 2016).
# Tests used:
# c-Kit = c-Kit (Homo sapiens, UniProt P10721)
# [1] = test system: platelet-derived growth factor receptor (PDGFR)
# Sequence of c-Kit (P10721 26-976): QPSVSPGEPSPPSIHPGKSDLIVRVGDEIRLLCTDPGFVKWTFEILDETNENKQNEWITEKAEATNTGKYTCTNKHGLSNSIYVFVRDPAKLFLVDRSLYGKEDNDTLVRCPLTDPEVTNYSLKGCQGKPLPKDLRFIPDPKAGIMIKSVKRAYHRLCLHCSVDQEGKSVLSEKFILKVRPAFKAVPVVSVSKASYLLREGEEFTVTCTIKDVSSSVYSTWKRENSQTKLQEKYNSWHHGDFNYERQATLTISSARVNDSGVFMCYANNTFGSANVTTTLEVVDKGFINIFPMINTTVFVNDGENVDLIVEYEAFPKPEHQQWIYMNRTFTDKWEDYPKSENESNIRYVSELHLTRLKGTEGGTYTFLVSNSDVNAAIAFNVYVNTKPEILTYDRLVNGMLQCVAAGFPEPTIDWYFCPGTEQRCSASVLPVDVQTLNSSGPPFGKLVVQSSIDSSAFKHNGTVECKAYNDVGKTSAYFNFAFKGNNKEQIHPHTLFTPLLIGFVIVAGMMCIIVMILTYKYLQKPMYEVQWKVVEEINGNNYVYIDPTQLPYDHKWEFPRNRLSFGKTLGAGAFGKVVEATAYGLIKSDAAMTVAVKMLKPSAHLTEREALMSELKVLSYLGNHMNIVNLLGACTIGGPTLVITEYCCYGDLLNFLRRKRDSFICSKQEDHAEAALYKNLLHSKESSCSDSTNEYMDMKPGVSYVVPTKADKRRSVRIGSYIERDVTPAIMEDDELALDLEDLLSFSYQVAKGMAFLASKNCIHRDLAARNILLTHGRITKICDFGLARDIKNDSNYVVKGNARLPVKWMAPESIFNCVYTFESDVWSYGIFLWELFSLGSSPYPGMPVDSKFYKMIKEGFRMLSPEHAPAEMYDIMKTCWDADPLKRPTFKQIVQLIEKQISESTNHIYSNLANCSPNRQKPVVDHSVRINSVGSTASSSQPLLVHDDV
smiles,measurement,setting,value
Cc1ccc(NC(=O)c2ccc(CN3CCN(C)CC3)cc2)cc1Nc1nccc(-c2cccnc2)n1 [Imatinib],effect on kinase activity,c-Kit,block the activity
same,effect on kinase activity,[1],block the activity
